Results published in patent publication US10183949B2, “Pyrimidinone derivative having autotaxin-inhibitory activity” (The University of Tokyo, priority 2014, dated 2019).
pIC50: −log10 of the molar value.

Molecular target: T1, Human autotaxin enzyme (Homo sapiens, UniProt Q13822)
T1 construct: purchased R&D System
Assay: Evaluation of autotaxin inhibitor, 18:0 Lyso PC / choline assay (Test Example 2)
Type: biochemical
Conditions: autotaxin inhibition, IC50 class; read-out: Inhibitor activity
How it was run: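 Human autotaxin in 100 mM Tris-HCl pH 7.5, 150 mM NaCl, 5 mM MgCl2, 0.05% Triton X-100 reacted with 18:0 Lyso PC (200 μM stock) and test compound 2 h at room temperature. Released choline quantified via choline oxidase/peroxidase resorufin fluorescence (ex 531/em 598 nm, 20 min); inhibition vs no-compound and no-enzyme controls, concentration-response curve.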

| pIC50 | SMILES |
| --- | --- |
| 6.00 to 7.00 | COC(=O)Cn1c(CCCC(F)(F)F)nc(-c2ccc(C(F)(F)F)nc2)cc1=O [Compound I-0253] |
| 7.00 to 8.00 | CC(=O)Nc1cc(Cl)ccc1-c1cc(=O)n(CC(=O)OC(C)(C)C)cn1 [Compound I-0244] |

Same assay, conditions: human autotaxin enzyme, 18:0 Lyso PC substrate, choline assay, room temperature 2 hours; read-out: Inhibitor activity (IC50)

| SMILES | pIC50 |
| --- | --- |
| CCCCCc1nc(-c2ccc(Cl)cc2)cc(=O)n1Cc1cccc(C(=O)O)c1 [Compound I-0009] | 7.00 to 8.00 |
| O=C(NCCOCCO)c1cccc(Cn2c(CCCC(F)(F)F)nc(-c3ccc(Cl)cc3)cc2=O)c1 [Compound I-0162] | 6.00 to 7.00 |
| O=C(Cn1c(CCCC(F)(F)F)nc(-c2ccc(Cl)cc2)cc1=O)NC1CCS(=O)(=O)C1 (centres unmarked) [Compound I-0143] | 7.00 to 8.00 |
| O=C(c1cccc(Cn2c(CCCC(F)(F)F)nc(-c3ccc(Cl)cc3)cc2=O)c1)N1CCC(O)CC1 [Compound I-0158] | 7.00 to 8.00 |
| C[C@@H]1COC[C@H](C)N1C(=O)Cn1c(CCCC(F)(F)F)nc(-c2ccc(Cl)cc2)cc1=O [Compound I-0125] | 7.00 to 8.00 |
| CCCCCc1nc(-c2ccc(Cl)cc2)cc(=O)n1CC(=O)NCC(O)Cc1ccccc1 (centres unmarked) [Compound I-0088] | 7.00 to 8.00 |
| O=C(O)c1ccc(Cn2c(CCCC(F)(F)F)nc(-c3ccc(Cl)cc3)cc2=O)s1 [Compound I-0293] | 7.00 to 8.00 |
| COC(=O)Nc1cc(Cl)ccc1-c1cc(=O)n(CC(=O)NC2(C)CCS(=O)(=O)C2)c(C)n1 (centres unmarked) [Compound I-0324] | 7.00 to 8.00 |
| COC(=O)Cn1c(CCCC(F)(F)F)nc(-c2ccc(Cl)cc2)cc1=O [Compound I-0109] | 7.00 to 8.00 |
| O=C(NCc1ccc(O)nc1)c1cccc(Cn2c(CCCC(F)(F)F)nc(-c3ccc(Cl)cc3)cc2=O)c1 [Compound I-0176] | 6.00 to 7.00 |
| CCCCCc1nc(-c2ccc(Cl)cc2)cc(=O)n1CC(=O)N1CCC(C(=O)O)CC1 [Compound I-0042] | > 8.00 |
| CCCCCc1nc(-c2ccc(Cl)cc2)cc(=O)n1CC(=O)NC(CO)Cc1ccc(F)cc1 (centres unmarked) [Compound I-0075] | ≤ 6.00 |
| Cc1nc(-c2ccc(C#N)cc2NC(=O)C2CC2)cc(=O)n1CC(=O)NCC1(CO)COC1 [Compound I-0287] | 7.00 to 8.00 |
| O=C(O)Cn1c(CCCC(F)(F)F)nc(-c2ccc(Cl)cc2)cc1=O [Compound I-0110] | ≤ 6.00 |
| N#CC1(NC(=O)Cn2c(CCCC(F)(F)F)nc(N3CCC(C(F)(F)F)CC3)cc2=O)CC1 [Compound I-0217] | 7.00 to 8.00 |
| Cc1nc(C2=CCC(C(F)(F)F)CC2)cc(=O)n1CC(=O)NC1(C#N)CC1 (centres unmarked) [Compound I-0261] | 6.00 to 7.00 |
| CN(C)C(=O)CNC(=O)c1cccc(Cn2c(CCCC(F)(F)F)nc(-c3ccc(Cl)cc3)cc2=O)c1 [Compound I-0183] | 7.00 to 8.00 |
| O=C(NC(CO)CO)c1cccc(Cn2c(CCCC(F)(F)F)nc(-c3ccc(Cl)cc3)cc2=O)c1 [Compound I-0165] | 6.00 to 7.00 |
| N#CC1(NC(=O)Cn2c(CCCC(F)(F)F)nc(N3CCC(F)(F)CC3)cc2=O)CC1 [Compound I-0237] | 6.00 to 7.00 |
| CCCCCNc1nc(-c2ccc(C(F)(F)F)cc2)cc(=O)n1Cc1cccc(C(=O)OC(C)(C)C)c1 [Compound I-0011] | ≤ 6.00 |
| CCCCCNc1nc(-c2ccc(C#N)cc2)cc(=O)n1Cc1cccc(C(=O)O)c1 [Compound I-0022] | 7.00 to 8.00 |
| COCCCc1nc(-c2ccc(Cl)cc2)cc(=O)n1CC(=O)NCC(C)(C)O [Compound I-0230] | 6.00 to 7.00 |

| SMILES | pIC50 |
| --- | --- |
| N#CCCCOc1nc(-c2ccc(Cl)cc2)cc(=O)n1CC(=O)NC(Cc1ccccc1)C(=O)O (centres unmarked) [Compound I-0116] | 7.00 to 8.00 |
| CCCCCc1nc(-c2ccc(Cl)cc2)cc(=O)n1CC(=O)NCCC#N [Compound I-0080] | 7.00 to 8.00 |
| COC(=O)Nc1cc(Cl)ccc1-c1cc(=O)n(CC(=O)N2CCOCC2(C)C)c(C)n1 [Compound I-0285] | 7.00 to 8.00 |
| N#Cc1ccc(-c2cc(=O)n(CC(=O)NC3(C#N)CC3)c(CCCC(F)(F)F)n2)c(F)c1 [Compound I-0235] | > 8.00 |
| CCCCCc1nc(-c2ccc(Cl)cc2)cc(=O)n1CC(=O)NC1(C(=O)O)CCCC1 [Compound I-0057] | 7.00 to 8.00 |
| Cc1nc(-c2ccc(C#N)cc2NC(=O)C(C)(C)C)cc(=O)n1CC(=O)NCC1(CO)COC1 [Compound I-0308] | 7.00 to 8.00 |
| CCCCCc1nc(-c2ccc(Cl)cc2)cc(=O)n1Cc1cccc(C(=O)OC)c1 [Compound I-0074] | ≤ 6.00 |
| CC(C)(C)OC(=O)Cn1c(CCC(F)(F)F)nc(-c2ccc(Cl)cc2)cc1=O [Compound I-0216] | 6.00 to 7.00 |
| CC(C)(C)OC(=O)Cn1c(CCCC(F)(F)F)nc(-c2ccc(C(F)(F)F)nc2)cc1=O [Compound I-0304] | 7.00 to 8.00 |
| Cc1nc(-c2ccc(C#N)cc2NC(=O)C2CC2)cc(=O)n1CC(=O)O [Compound I-0258] | ≤ 6.00 |
| CCCCCNc1nc(-c2ccc(C#N)cc2)cc(=O)n1Cc1cccc(C(=O)OC(C)(C)C)c1 [Compound I-0021] | 6.00 to 7.00 |
| COC(=O)Nc1cc(C#N)ccc1-c1cc(=O)n(CC(=O)OC(C)(C)C)c(C)n1 [Compound I-0263] | > 8.00 |
| CCOC(=O)c1noc(Cn2c(CCCC(F)(F)F)nc(-c3ccc(Cl)cc3)cc2=O)n1 [Compound I-0311] | 6.00 to 7.00 |
| Cc1nonc1CNC(=O)c1cccc(Cn2c(CCCC(F)(F)F)nc(-c3ccc(Cl)cc3)cc2=O)c1 [Compound I-0190] | 6.00 to 7.00 |
| O=C(NCC1(CO)CC1)c1cccc(Cn2c(CCCC(F)(F)F)nc(-c3ccc(Cl)cc3)cc2=O)c1 [Compound I-0175] | 6.00 to 7.00 |
| CCCCCc1nc(-c2ccc(Cl)cc2)cc(=O)n1CC(=O)NCCCC(=O)O [Compound I-0044] | > 8.00 |
| CC(C)(C)OC(=O)Cn1c(CCCC(F)(F)F)nc(-c2ccc(Cl)cc2CO)cc1=O [Compound I-0299] | > 8.00 |
| N#CC1(NC(=O)Cn2c(CCCC(F)(F)F)nc(-c3ccc(C(F)(F)F)cc3)cc2=O)CC1 [Compound I-0225] | > 8.00 |
| CCCCCc1nc(-c2ccc(Cl)cc2)cc(=O)n1CC(=O)N1CCC(c2ccccc2C(=O)O)CC1 [Compound I-0046] | 7.00 to 8.00 |
| Cn1c(=O)cc(-c2ccc(Cl)cc2)n(CCCC#N)c1=N [Compound I-0108] | ≤ 6.00 |
| O=C(Cn1c(CCCC(F)(F)F)nc(-c2ccc(Cl)cc2)cc1=O)NC(CO)(CO)CO [Compound I-0135] | 7.00 to 8.00 |

Other lines, results leading:

| pIC50 | SMILES |
| --- | --- |
| 7.00 to 8.00 | Cc1nc(-c2ccc(Cl)cc2NC(=O)C2CC2)cc(=O)n1CC(=O)NC1(C#N)CC1 [Compound I-0416] |
| 6.00 to 7.00 | CC(C)(C)C(=O)Nc1cc(Cl)ccc1-c1cc(=O)n(Cc2cccc(C(=O)NC(CO)CO)c2)cn1 [Compound I-0486] |
| 7.00 to 8.00 | CCNC(=O)N1CCC(NC(=O)Cn2c(CCCC(F)(F)F)nc(-c3ccc(C(F)(F)F)cc3)cc2=O)CC1 [Compound I-0363] |
| 7.00 to 8.00 | COC(=O)Nc1cc(Cl)ccc1-c1cc(=O)n(CC(=O)N2CCC(C#N)CC2)c(C)n1 [Compound I-0433] |
| 7.00 to 8.00 | Cc1nc(-c2ccc(Cl)cc2NC(=O)C2CC2)cc(=O)n1CC(=O)NCc1cc(=O)[nH]o1 [Compound I-0452] |
| 7.00 to 8.00 | CNC(=O)NC1CCN(C(=O)Cn2c(C)nc(-c3ccc(Cl)cc3NC(=O)C3CC3)cc2=O)CC1 [Compound I-0479] |
| 6.00 to 7.00 | CC(C)(C)C(=O)Nc1cc(Cl)ccc1-c1cc(=O)n(CC(=O)NCC2CCC(=O)NC2)cn1 (centres unmarked) [Compound I-0469] |
| 7.00 to 8.00 | COC(=O)Nc1cc(C#N)ccc1-c1cc(=O)n(CC(=O)NCC2CNC(=O)O2)c(C)n1 (centres unmarked) [Compound I-0430] |
| 6.00 to 7.00 | COC(=O)Nc1cc(C#N)ccc1-c1cc(=O)n(CC(=O)N2CC(C)(O)C2)c(C)n1 [Compound I-0398] |
| ≤ 6.00 | O=C(Cn1cnc(-c2ccc(Cl)cc2)cc1=O)NCCCCCNC(=O)c1ccc2[nH]nnc2c1 [Compound I-0476] |
| > 8.00 | COC(=O)Nc1cc(Cl)ccc1-c1cc(=O)n(CC(=O)NC(C)(C)CF)c(C)n1 [Compound I-0415] |
| 7.00 to 8.00 | Cc1nc(-c2ccc(Cl)cc2NC(=O)C2CC2)cc(=O)n1CC(=O)NC(C)(C)CF [Compound I-0424] |
| 7.00 to 8.00 | O=C(Cn1c(CCCC(F)(F)F)nc(-c2ccc(C(F)(F)F)cc2)cc1=O)N1CCOC(CO)C1 (centres unmarked) [Compound I-0338] |
| 7.00 to 8.00 | COC(=O)Nc1cc(Cl)ccc1-c1cc(=O)n(Cc2cccc(C(=N)NO)c2)c(C)n1 [Compound I-0377] |
| 7.00 to 8.00 | Cc1nc(-c2ccc(Cl)cc2NC(=O)C2CC2)cc(=O)n1CC(=O)N1CCC(CC(=O)OC(C)(C)C)CC1 [Compound I-0496] |
| 6.00 to 7.00 | CN(C)C(=O)NC1CCN(C(=O)Cn2c(CCCC(F)(F)F)nc(-c3ccc(C(F)(F)F)cc3)cc2=O)CC1 [Compound I-0364] |
| 6.00 to 7.00 | Cc1nc(-c2ccc(Cl)cc2NC(=O)C2CC2)cc(=O)n1CC(=O)N1CC(C(C)(C)O)C1 [Compound I-0454] |
| > 8.00 | COC(=O)Nc1cc(Cl)ccc1-c1cc(=O)n(CC(=O)NCc2c[nH]nn2)c(C)n1 [Compound I-0421] |
| 7.00 to 8.00 | COC(=O)Nc1cc(Cl)ccc1-c1cc(=O)n(CC(=O)N2CCN(CC(F)(F)F)CC2)c(C)n1 [Compound I-0481] |
| > 8.00 | COC(=O)Nc1cc(C#N)ccc1-c1cc(=O)n(CC(=O)NCc2c[nH]nn2)c(C)n1 [Compound I-0414] |
| 6.00 to 7.00 | O=C(Cn1cnc(-c2ccc(Cl)cc2)cc1=O)NCCCCCCNC(=O)c1ccc2nn[nH]c2c1 [Compound I-0483] |
| 7.00 to 8.00 | CNS(=O)(=O)CCNC(=O)Cn1c(C)nc(-c2ccc(Cl)cc2NC(=O)C2CC2)cc1=O [Compound I-0474] |
| ≤ 6.00 | O=C(Cn1cnc(-c2ccc(Cl)cc2)cc1=O)NCCCCNC(=O)c1ccc2nn[nH]c2c1 [Compound I-0472] |
| 7.00 to 8.00 | Cc1noc(C2(NC(=O)Cn3c(C)nc(-c4ccc(Cl)cc4NC(=O)C4CC4)cc3=O)CC2)n1 [Compound I-0475] |
| 6.00 to 7.00 | CC(=O)NC1CCN(C(=O)Cn2c(CCCC(F)(F)F)nc(-c3ccc(C(F)(F)F)cc3)cc2=O)CC1 [Compound I-0351] |
| 7.00 to 8.00 | Cc1nc(-c2ccc(Cl)cc2NC(=O)C2CC2)cc(=O)n1CC(=O)N1CCC(C(N)=O)CC1 [Compound I-0463] |
